We go through 25 compounds from US10689378B2, “Triazolopyridine compounds and uses thereof” (Novartis AG, priority 2016, dated 2020).

One assay deals with T1, EED (1-441)-His protein (Homo sapiens, UniProt O75530).
T1 construct: 30 nM EED (1-441)-His protein
Kind of assay: EED-H3K27Me3 peptide competition binding assay by AlphaScreen. Conditions: EED-H3K27Me3 peptide competition, AlphaScreen; read-out: (a) IC50 EED Alphascreen binding Qualified. In short, it runs like this: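 Serially diluted compound (12 points, 3-fold) incubated 20 min with 30 nM EED(1-441)-His and 15 nM biotin-H3K27Me3(19-33) peptide in 25 mM HEPES pH 8, 0.02% Tween-20, 0.5% BSA. Ni-chelate acceptor/streptavidin donor beads (10 μg/mL each) added, 1 h rt dark; 615 nm emission normalized to controls, dose-response fit for IC50.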
For orientation: Alpha assays give light when donor and acceptor beads are brought close together.

The target in assay [1] is wild type PRC2 (wtPRC2) complex (Homo sapiens, UniProt O75530). Put plainly: EED LC-MS assay (SAH production by PRC2). It is filed as biochemical. The conditions noted are these: PRC2 LC-MS assay; read-out: (b) IC50 EED LC-MS Qualified. In a few lines:
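Pentameric PRC2 (EZH2, SUZ12, EED, Rbap48, AEBP), 12 nM final, preincubated 20 min with compound and SAM, then 1.5 μM biotinylated H3K27me0 peptide, 1 μM SAM, pH 8.0, 120 min at rt. SAH quantified by LC-MS/MS with d4-SAH; control-normalized activity fitted for IC50.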

Assay [2] relates to H3K27 methylation in G401 cell. Kind of assay: ELISA (H3K27 methylation) assay in G401 cells. It is filed as cell-based, human. The conditions noted are these: Homo sapiens, G-401, H3K27 methylation ELISA, read-out: (c) IC50 ELISA Qualified. In a few lines:
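G401 cells treated 48 h with 3-fold dilutions (8 or 12 points, top 20 μM). Acid-extracted histones probed by ELISA for H3K27me3 or H3K27me2 with ECL readout, normalized to total H3. Percent inhibition versus DMSO fitted to dose-response curve for IC50.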

Usually IC50 stands for the concentration at which inhibition is half-maximal.

T1 sequence (O75530 whole entry): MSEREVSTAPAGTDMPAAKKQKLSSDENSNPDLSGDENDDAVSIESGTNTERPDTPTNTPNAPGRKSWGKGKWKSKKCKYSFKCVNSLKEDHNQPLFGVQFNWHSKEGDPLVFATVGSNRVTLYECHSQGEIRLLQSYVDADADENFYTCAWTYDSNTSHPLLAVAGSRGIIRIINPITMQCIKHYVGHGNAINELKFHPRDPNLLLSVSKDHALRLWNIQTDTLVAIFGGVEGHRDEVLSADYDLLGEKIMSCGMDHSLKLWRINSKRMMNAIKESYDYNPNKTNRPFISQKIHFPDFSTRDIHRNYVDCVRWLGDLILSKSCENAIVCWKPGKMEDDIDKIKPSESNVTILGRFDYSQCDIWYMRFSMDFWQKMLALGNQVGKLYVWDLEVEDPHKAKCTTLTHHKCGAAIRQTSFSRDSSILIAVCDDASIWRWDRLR
Sequence of wild type PRC2 (wtPRC2) complex (O75530 whole entry): as above
Sequence of wild type PRC2 (wtPRC2) complex (Q15910 whole entry partner): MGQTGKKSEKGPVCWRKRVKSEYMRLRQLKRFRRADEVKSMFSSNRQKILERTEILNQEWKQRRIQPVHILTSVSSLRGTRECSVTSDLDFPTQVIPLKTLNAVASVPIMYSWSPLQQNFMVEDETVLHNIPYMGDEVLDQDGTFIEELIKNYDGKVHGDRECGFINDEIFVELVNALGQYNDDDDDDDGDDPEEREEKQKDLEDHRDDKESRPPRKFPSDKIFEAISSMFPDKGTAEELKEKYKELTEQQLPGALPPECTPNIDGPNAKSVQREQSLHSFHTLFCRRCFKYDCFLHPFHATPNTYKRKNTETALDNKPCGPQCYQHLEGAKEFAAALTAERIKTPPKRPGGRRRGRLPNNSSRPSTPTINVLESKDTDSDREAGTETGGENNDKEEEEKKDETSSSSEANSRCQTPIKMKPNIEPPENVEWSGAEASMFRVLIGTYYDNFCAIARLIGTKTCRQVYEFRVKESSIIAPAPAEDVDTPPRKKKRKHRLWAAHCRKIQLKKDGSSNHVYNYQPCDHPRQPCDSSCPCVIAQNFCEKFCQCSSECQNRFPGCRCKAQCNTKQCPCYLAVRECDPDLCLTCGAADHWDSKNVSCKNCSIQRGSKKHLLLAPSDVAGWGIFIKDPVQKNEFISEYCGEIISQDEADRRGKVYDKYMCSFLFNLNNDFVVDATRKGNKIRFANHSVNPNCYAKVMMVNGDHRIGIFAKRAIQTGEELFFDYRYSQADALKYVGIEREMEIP
Sequence of wild type PRC2 (wtPRC2) complex (Q15022 whole entry partner): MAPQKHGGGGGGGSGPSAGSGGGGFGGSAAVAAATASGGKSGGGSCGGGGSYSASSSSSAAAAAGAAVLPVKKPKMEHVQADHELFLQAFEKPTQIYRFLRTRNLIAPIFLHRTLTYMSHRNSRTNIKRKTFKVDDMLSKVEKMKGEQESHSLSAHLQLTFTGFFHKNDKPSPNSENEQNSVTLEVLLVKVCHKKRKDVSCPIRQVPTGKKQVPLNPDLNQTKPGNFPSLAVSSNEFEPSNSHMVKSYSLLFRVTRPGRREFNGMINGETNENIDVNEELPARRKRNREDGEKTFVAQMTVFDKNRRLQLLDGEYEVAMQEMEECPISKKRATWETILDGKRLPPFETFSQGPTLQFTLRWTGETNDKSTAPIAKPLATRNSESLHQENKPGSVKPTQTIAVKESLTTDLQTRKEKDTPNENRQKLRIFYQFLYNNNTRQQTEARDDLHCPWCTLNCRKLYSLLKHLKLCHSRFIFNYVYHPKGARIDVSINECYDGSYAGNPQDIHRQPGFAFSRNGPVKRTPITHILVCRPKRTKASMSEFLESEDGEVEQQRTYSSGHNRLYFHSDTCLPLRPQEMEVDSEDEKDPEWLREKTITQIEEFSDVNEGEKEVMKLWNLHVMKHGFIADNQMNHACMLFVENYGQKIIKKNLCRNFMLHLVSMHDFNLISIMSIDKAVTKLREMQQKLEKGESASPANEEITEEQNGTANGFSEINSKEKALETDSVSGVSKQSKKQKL
Sequence of wild type PRC2 (wtPRC2) complex (Q09028 whole entry partner): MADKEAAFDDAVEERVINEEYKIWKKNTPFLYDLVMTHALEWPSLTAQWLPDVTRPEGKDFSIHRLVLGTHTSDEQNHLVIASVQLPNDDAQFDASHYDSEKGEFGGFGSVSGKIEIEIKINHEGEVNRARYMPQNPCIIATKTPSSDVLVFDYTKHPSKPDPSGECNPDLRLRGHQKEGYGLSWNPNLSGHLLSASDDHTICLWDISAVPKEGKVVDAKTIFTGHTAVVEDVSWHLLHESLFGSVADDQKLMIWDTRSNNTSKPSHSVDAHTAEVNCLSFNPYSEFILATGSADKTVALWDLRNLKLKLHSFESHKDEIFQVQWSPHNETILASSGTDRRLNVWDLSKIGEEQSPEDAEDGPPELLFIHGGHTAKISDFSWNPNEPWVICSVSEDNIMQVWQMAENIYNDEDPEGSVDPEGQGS
Sequence of wild type PRC2 (wtPRC2) complex (Q6ZN18 whole entry partner): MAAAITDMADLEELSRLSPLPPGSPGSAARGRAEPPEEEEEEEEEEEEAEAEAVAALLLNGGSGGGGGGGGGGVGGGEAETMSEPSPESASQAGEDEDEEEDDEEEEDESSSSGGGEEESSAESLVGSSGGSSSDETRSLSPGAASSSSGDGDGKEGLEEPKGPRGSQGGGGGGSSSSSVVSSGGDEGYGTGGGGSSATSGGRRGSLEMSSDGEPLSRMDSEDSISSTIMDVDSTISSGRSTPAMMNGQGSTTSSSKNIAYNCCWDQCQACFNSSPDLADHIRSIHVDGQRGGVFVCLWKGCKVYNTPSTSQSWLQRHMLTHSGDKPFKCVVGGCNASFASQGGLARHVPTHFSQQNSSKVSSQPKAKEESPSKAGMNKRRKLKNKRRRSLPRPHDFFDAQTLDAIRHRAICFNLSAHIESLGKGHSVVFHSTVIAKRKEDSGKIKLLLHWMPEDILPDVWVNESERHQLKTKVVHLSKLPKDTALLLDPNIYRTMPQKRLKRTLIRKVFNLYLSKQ

Take `COc1ccccc1CNc1ccc(-c2ccc(N3CCN(C)CC3C)nc2)c2nncn12` (stereo not drawn) [Example 180, 8-(6-(2,4-dimethylpiperazin-1-yl)pyridin-3-yl)-N-(2-methoxybenzyl)-[1,2,4] triazolo[4,3-a]pyridin-5-amine]: the IC50 on EED (1-441)-His protein turned out to be 55.7 nM; in assay [1] it was 171 nM; in assay [2], 57.9 nM.
The corresponding values for `COc1cccc(F)c1CNc1ccc(-c2cnccc2F)c2nncn12` [Example 181, N-(2-fluoro-6-methoxybenzyl)-8-(4-fluoropyridin-3-yl)-[1,2,4]triazolo[4,3-a] pyridin-5-amine] are 11.2 nM, 44.2 nM and 11.4 nM.
As to `CNC(=O)c1cncc(-c2ccc(NCc3c(F)cccc3OC)n3cnnc23)c1` [Example 182, 5-(5-((2-fluoro-6-methoxybenzyl)amino)-[1,2,4]triazolo[4,3-a]pyridin-8-yl)-N-methylnicotinamide], the IC50 on EED (1-441)-His protein came out at 20.4 nM; in assay [1], 520 nM; in assay [2] it was 16.5 nM.
For `COc1cccc(F)c1CNc1ccc(-c2ccc(CCO)nc2)c2nncn12` [Example 183, 2-(5-(5-((2-fluoro-6-methoxybenzyl)amino)-[1,2,4]triazolo[4,3-a]pyridin-8-yl)pyridin-2-yl)ethanol], the IC50 on EED (1-441)-His protein is 19.9 nM; in assay [1] it was 41.6 nM; in assay [2], 17.3 nM.
Consider `COc1cccc(F)c1CNc1ccc(-c2cnc(S(C)(=O)=O)cc2C)c2nncn12` [Example 184, N-(2-fluoro-6-methoxybenzyl)-8-(4-methyl-6-(methylsulfonyl)pyridin-3-yl)-[1,2,4]triazolo[4,3-a] pyridin-5-amine], for which the IC50 was found to be 46.4 nM on EED (1-441)-His protein, 77.7 nM in assay [1] and 25 nM in assay [2].
On to `COc1cccc(F)c1CNc1ccc(-c2ccc(S(C)(=O)=O)nc2C)c2nncn12` [Example 185, N-(2-fluoro-6-methoxybenzyl)-8-(2-methyl-6-(methylsulfonyl)pyridin-3-yl)-[1,2,4]triazolo[4,3-a] pyridin-5-amine], for which the IC50 turned out to be 7.9 nM on EED (1-441)-His protein, 18.5 nM in assay [1] and 3.6 nM in assay [2].
For the compound `COc1cccc(F)c1CNc1ccc(-c2cn(C)nc2C)c2nncn12` [Example 186, 8-(1,3-dimethyl-1H-pyrazol-4-yl)-N-(2-fluoro-6-methoxybenzyl)-[1,2,4]triazolo[4,3-a] pyridin-5-amine], the IC50 is 65.9 nM on EED (1-441)-His protein, 14 nM in assay [1] and 40.9 nM in assay [2].
As to `COc1cccc(F)c1CNc1ccc(-c2c(C)n[nH]c2C)c2nncn12` [Example 187, 8-(3,5-dimethyl-1H-pyrazol-4-yl)-N-(2-fluoro-6-methoxybenzyl)-[1,2,4]triazolo[4,3-a] pyridin-5-amine], the IC50 at EED (1-441)-His protein came out at 41.6 nM; in assay [1] it was 172 nM; in assay [2], 52.8 nM.
Turning to `COc1cccc(F)c1CNc1ccc(-c2cnn(C)c2C)c2nncn12` [Example 188, 8-(1,5-dimethyl-1H-pyrazol-4-yl)-N-(2-fluoro-6-methoxybenzyl)-[1,2,4]triazolo[4,3-a] pyridin-5-amine], the IC50 was 55.2 nM at EED (1-441)-His protein, 93.1 nM in assay [1] and 34.8 nM in assay [2].
Turning to `COc1cccc(F)c1CNc1ccc(-c2c[nH]nc2C)c2nncn12` [Example 189, N-(2-fluoro-6-methoxybenzyl)-8-(3-methyl-1H-pyrazol-4-yl)-[1,2,4] triazolo[4,3-a]pyridin-5-amine], the IC50 was 53.6 nM at EED (1-441)-His protein, 71.1 nM in assay [1] and 56.4 nM in assay [2].
For the compound `COc1ccncc1-c1ccc(NCc2c(F)cccc2OC)n2cnnc12` [Example 190, N-(2-fluoro-6-methoxybenzyl)-8-(4-methoxypyridin-3-yl)-[1,2,4] triazolo[4,3-a]pyridin-5-amine], the IC50 is 41.5 nM at EED (1-441)-His protein, 240 nM in assay [1] and 13.1 nM in assay [2].
For `COc1cccc(F)c1CNc1ccc(-c2ccccc2Cl)c2nncn12` [Example 192, 8-(2-chlorophenyl)-N-(2-fluoro-6-methoxybenzyl)-[1,2,4]triazolo[4,3-a]pyridin-5-amine], in that order: 88.8 nM, 348 nM and 118 nM.
Consider `COc1cccc(F)c1CNc1ccc(-c2ccc(C(=O)N(C)C)nc2)c2nncn12` [Example 194, 5-(5-((2-fluoro-6-methoxybenzyl)amino)-[1,2,4]triazolo[4,3-a]pyridin-8-yl)-N,N-dimethylpicolinamide], for which the values for the IC50 (on EED (1-441)-His protein; in assay [1]; in assay [2]) were 16.5 nM, 49.4 nM and 6.3 nM, respectively.
On to `COc1cccc(F)c1CNc1ccc(-c2cncc(C(=O)N(C)C)c2)c2nncn12` [Example 195, 5-(5-((2-fluoro-6-methoxybenzyl)amino)-[1,2,4]triazolo[4,3-a]pyridin-8-yl)-N,N-dimethylnicotinamide], for which the IC50 at EED (1-441)-His protein was 17.6 nM; in assay [1] it was 61.3 nM; in assay [2] it was 8 nM.
In the case of `COc1cccc(F)c1CNc1ccc(-c2ccc(NC(C)=O)nc2)c2nncn12` [Example 196, N-(5-(5-((2-fluoro-6-methoxybenzyl)amino)-[1,2,4]triazolo[4,3-a]pyridin-8-yl)pyridin-2-yl)acetamide], the IC50 was determined as 25.3 nM at EED (1-441)-His protein, 164 nM in assay [1] and 43.8 nM in assay [2].
For `COc1cccc(F)c1CNc1ccc(-c2cncc(OCCCS(C)(=O)=O)c2)c2nncn12` [Example 198, N-(2-fluoro-6-methoxybenzyl)-8-(5-(3-(methylsulfonyl)propoxy)pyridin-3-yl)-[1,2,4]triazolo [4,3-a]pyridin-5-amine], the IC50 stood at 34.5 nM at EED (1-441)-His protein, 235 nM in assay [1] and 32 nM in assay [2].
For `COc1cccc(F)c1CNc1ccc(-c2cncc(C3=NC(C)(C)CO3)c2)c2nncn12` [Example 199, 8-(5-(4,4-dimethyl-4,5-dihydrooxazol-2-yl)pyridin-3-yl)-N-(2-fluoro-6-methoxybenzyl)-[1,2,4]triazolo[4,3-a] pyridin-5-amine], in that order: 23.7 nM, 328 nM and 31.3 nM.
For the compound `COc1cccc(F)c1CNc1ccc(-c2cc(F)c(N)c(F)c2)c2nncn12` [Example 200, 8-(4-amino-3,5-difluorophenyl)-N-(2-fluoro-6-methoxybenzyl)-[1,2,4] triazolo[4,3-a]pyridin-5-amine], the IC50 on EED (1-441)-His protein worked out at 71.1 nM; in assay [1], 225 nM; in assay [2], 110 nM.
For the compound `COc1cccc(F)c1CNc1ccc(-c2ccc(F)cc2C)c2nncn12` [Example 201, 8-(4-fluoro-2-methylphenyl)-N-(2-fluoro-6-methoxybenzyl)-[1,2,4]triazolo[4,3-a] pyridin-5-amine], the results for the IC50 (at EED (1-441)-His protein; in assay [1]; in assay [2]) were 46.5 nM, 366 nM and 71.7 nM, respectively.
The corresponding values for `COCc1cncc(-c2ccc(NCc3c(F)cccc3OC)n3cnnc23)c1` [Example 203, N-(2-fluoro-6-methoxybenzyl)-8-(5-(methoxymethyl)pyridin-3-yl)-[1,2,4]triazolo[4,3-a] pyridin-5-amine] are 53.8 nM, 73 nM and 38.7 nM.
As to `COc1cccc(F)c1CNc1ccc(-c2ccc(C(C)O)nc2)c2nncn12` (stereo not drawn) [Example 205, 1-(5-(5-((2-fluoro-6-methoxybenzyl)amino)-[1,2,4]triazolo[4,3-a]pyridin-8-yl)pyridin-2-yl)ethanol], the results for the IC50 (at EED (1-441)-His protein; in assay [1]; in assay [2]) were 53.1 nM, 160 nM and 43.7 nM, respectively.
The corresponding values for `COc1cccc(F)c1CNc1ccc(-c2ccc(C(=O)N(C)C)cc2)c2nncn12` [Example 206, 4-(5-((2-fluoro-6-methoxybenzyl)amino)-[1,2,4]triazolo[4,3-a]pyridin-8-yl)-N,N-dimethylbenzamide] are 24 nM, 48 nM and 24.1 nM.
Consider `COc1cccc(F)c1CNc1ccc(-c2cncc(O)c2)c2nncn12` [Example 207, 5-(5-((2-fluoro-6-methoxybenzyl)amino)-[1,2,4]triazolo[4,3-a]pyridin-8-yl) pyridin-3-ol], for which the results for the IC50 (on EED (1-441)-His protein; in assay [1]; in assay [2]) were 24.9 nM, 467 nM and 74.8 nM, respectively.
As for `COc1cccc(F)c1CNc1ccc(-c2cnn(C3CC3)c2)c2nncn12` [Example 210, 8-(1-cyclopropyl-1H-pyrazol-4-yl)-N-(2-fluoro-6-methoxybenzyl)-[1,2,4] triazolo[4,3-a]pyridin-5-amine], the IC50 on EED (1-441)-His protein was 42.4 nM; in assay [1] it was 165 nM; in assay [2], 61.9 nM.
Regarding `COc1cccc(F)c1CNc1ccc(-c2cnn(C3CCOCC3)c2)c2nncn12` [Example 212, N-(2-fluoro-6-methoxybenzyl)-8-(1-(tetrahydro-2H-pyran-4-yl)-1H-pyrazol-4-yl)-[1,2,4]triazolo[4,3-a] pyridin-5-amine], the IC50 on EED (1-441)-His protein was found to be 18 nM; in assay [1], 75.6 nM; in assay [2], 22.6 nM.
